Results: US8476246B2, “Combination of a chemotherapeutic agent and an inhibitor of the TGF-beta system” (Antisense Pharma GmbH, priority 2009, dated 2013)
“Also recorded” adds a separate entry of the source. Read-outs that look alike come from different tables or passages of the source.

Key:
[1] = tested on: Hup-T3 cells; test: Proliferation/viability of Hup-T3 cells (EZ4U method); format: cell-based, human; settings: gemcitabine 0.05 nM to 5 μM alone, 7 days, FIG. 2
Protocol: In a 96-well tissue culture plate 4000 cells/well of a human pancreatic tumor cell line Hup-T3 (German Collection of Microorganisms and Cell Cultures GmbH, Braunschweig, Germany) were seeded. The Hup-T3 cell line is not resistant to gemcitabine. One day after seeding, cells were co-treated with […] different gemcitabine concentrations, i.e., 5 μM, 2 μM, 800 nM, 320 nM, 128 nM, 51.2 nM, 20.5 nM, 8.2 nM, 3.3 nM and 0 nM gemcitabine, respectively, in combination with 0 μM (▪), 5 μM (Δ) or 10 μM (∇) TGF-beta 2 antisense oligonucleotide, for example SEQ ID No. 30, for 5 h. […]
The proliferation/viability of the Hup-T3 cells was analyzed using the EZ4U method according to the manufacturer's instructions (Biozol Diagnostca Vertrieb GmbH), and the OD was measured after an incubation time of 75 min with EZ4U solution using the plate reader “Fluostar-Optima” (BMG LABTECH GmbH). […]
The proliferation/viability of the Hup-T3 cells (▪) was analyzed using the EZ4U method according to the manufacturer's instructions (Biozol Diagnostca Vertrieb GmbH), and the OD was measured after an incubation time of 75 min with EZ4U solution using the plate reader “Fluostar-Optima” (BMG LABTECH GmbH).

[2] = tested on: TGF-beta 2; test: TGF-beta 2 secretion of Hup-T3 cells (TGF-beta 2-ELISA of cell supernatants); format: cell-based, human
Protocol: After 7 days of total treatment, cell supernatants were removed and the TGF-beta 2 concentration was analyzed (see Example 4, and FIG. 4).
The effect of gemcitabine on TGF-beta 2 expression and secretion, respectively, was investigated on Hup-T3 cells. Gemcitabine was administered to the Hup-T3 cells in following concentrations: 5 μM, 0.5 μM, 50 nM, 5 nM, 0.5 nM, 0.05 nM or 0 nM, and the cells were incubated for 5 h according to Example 1. The treatment solution was optionally replaced after 3 days.
After 7 days of treatment, cell supernatants were removed for the analysis of TGF-beta 2 concentration. The TGF-beta 2 secretion (Δ) was quantified by a standard TGF-beta 2-ELISA Kit (R&D Systems, Minneapolis, USA) according to the manufacturer's instructions.
In a further experiment the effect of the TGF-beta 2 antisense oligonucleotide on the expression and secretion, respectively, of TGF-beta 2 was investigated on Hup-T3 cells. The TGF-beta 2 antisense oligonucleotide, for example SEQ ID No. 30, was administered to the Hup-T3 cells as described in Example 1 (0 μM, 1 μM, 2.5 μM, 5 μM, 10 μM, 20 μM, 40 μM, 60 μM, or 80 μM TGF-beta 2 antisense oligonucleotide). The cells were incubated according to Example 1 and after 7 days of treatment, the cell supernatants were removed for the analysis of TGF-beta 2 concentration using the TGF-beta 2-ELISA Kit of R&D Systems.
Hup-T3 cells were incubated with different concentrations of gemcitabine (2 μM, 800 nM, 320 nM, 128 nM, 51.2 nM, 20.5 nM, 8.2 nM, and 0 nM) and TGF-beta 2 antisense oligonucleotide according to Example 1 (0 μM (▪), 5 μM (Δ), or 10 μM (•) TGF-beta 2 antisense oligonucleotide) and the cell supernatants were removed after 7 days of treatment for the analysis of TGF-beta 2 concentration using the TGF-beta 2-ELISA Kit of R&D Systems.

[3] = tested on: gemcitabine-resistant human bladder cancer cells; settings: cited from earlier work
[4] = tested on: MEL-Juso cells; test: Proliferation/viability of MEL-Juso cells (Cyquant method); format: cell-based, human; settings: 10 μM TGF-beta 2 antisense oligonucleotide in comparison to 0 μM, FIG. 5
Protocol: In a 48-well tissue culture plate 10 000 cells/well of a human melanoma cell line MEL-Juso (CLS—Cell Lines Service, Eppelheim, Germany) were seeded. The MEL-Juso cell line is not resistant to temozolomide. Six hours after seeding, cells were co-treated with eight different temozolomid concentrations, i.e., 200 μM, 100 μM, 50 μM, 25 μM, 12.5 μM, 6.25 μM, 3.125 μM, and 0 μM temozolomide, respectively, in combination with 0 μM (▪), 5 μM (Δ) or 10 μM (∇) TGF-beta 2 antisense oligonucleotide, for example SEQ ID No. 30, for 2 days. Substances (temozolomide and TGF-beta 2 antisense oligonucleotide) were prepared in aqueous solution, stored at 4° C. and were used for 4 weeks. Thereafter the first treatment solution comprising temozolomidee and the TGF-beta 2 antisense oligonucleotide was removed and replaced by a second treatment solution containing the TGF-beta 2 antisense oligonucleotide and temozolomide in the above mentioned concentrations for further 2 days. […]
The proliferation/viability of the MEL-Juso cells was analyzed using the Cyquant method according to the manufacturer's instructions (Invitrogen), and the OD was measured after an incubation time of 60min with Cyquant solutions (detection reagent, direct nucleic acid stain, and direct nucleic acid background suppressor) using the plate reader “Fluostar-Optima” (BMG LABTECH GmbH).

[5] = tested on: A-172 cells; test: Cytotoxicity on A-172 cells (LDH release, CytoToxicity Detection Kit Plus); format: cell-based; settings: combination of temozolomide (200 or 800 μM) and 10 μM antisense oligonucleotide, 5 d
Protocol: A-172 cells (about 7000 cells/well) were seeded into 48-well plates, and 6 h after seeding 0 μM, 200 μM, or 800 μM temozolomide either alone (grey column) or in combination with 10 μM of a TGF-beta 2 antisense oligonuclotide (black column), for example SEQ ID No. 30, was added to the cells. After 2 d of incubation, the treatment solutions were replaced and cells were incubated for additional 3 d (total treatment time: 5 d). […] The cells of the supernatant were lysed by addition of lysis solution for example from the CytoToxicity Detection Kit Plus (Roche Diagnostics GmbH) and the LDH levels were determined for example according to the manual of the kit.

Row | Compound | effect of gemcitabine on proliferation and viability [1] | effect of gemcitabine on TGF-beta 2 secretion ([2]; gemcitabine 0.05 nM to 5 μM, 7 days, FIG. 2) | effect of gemcitabine on the suppression of TGF-beta 2 secretion by TGF-beta 2 antisense oligonucleotide ([2]; gemcitabine 8.2 nM to 2 μM with 5 or 10 μM antisense oligonucleotide, FIG. 4) | IC50 ([3]; gemcitabine-resistant cells chemosensitized with sCLU-2 antisense oligonucleotide) | IC50 ([3]; gemcitabine-resistant cells, before sCLU-2 antisense oligonucleotide) | effect on TGF-beta 2 secretion in the presence of gemcitabine ([2]; 0, 5 or 10 μM antisense oligonucleotide, gemcitabine 8.2 nM to 2 μM, FIG. 4) | effect on TGF-beta 2 secretion ([2]; antisense oligonucleotide 1 to 80 μM, no gemcitabine, 7 days, FIG. 3) | reduction of the IC50 of temozolomide (cytotoxicity) [4] | amount of released LDH [5]
1 | Nc1ccn([C@@H]2O[C@H](CO)[C@@H](O)C2(F)F)c(=O)n1 [gemcitabine] | has a cytotoxic effect; also recorded: decreases at higher gemcitabine concentrations | does not specifically influence the TGF-beta 2 secretion; also recorded: no specific influence | does not impair the suppression of TGF-beta 2 secretion; also recorded: does not affect the inhibitory effect of the antisense oligonucleotide on its target | 10 nM | 100 nM |  |  |  | 
2 | CGGCATGTCTATTTTGTA (listed as DNA, chemistry not given here) [TGF-beta 2 antisense oligonucleotide] |  |  |  |  |  | inhibited TGF-beta 2 secretion in a dose dependent manner | inhibited the TGF-beta 2 expression and secretion, respectively, in a dose dependent manner; also recorded: dose dependent inhibitory effect | about 2 × | significantly increased
